Results published in ChEMBL document CHEMBL5096235, “In Silico Exploration and Biological Evaluation of Bispecific Peptides Derived from Anti-HER2 Antibodies and Peptide-Camptothecin Conjugates for HER2-Positive Breast Cancer” (J Med Chem, 2022).
Active and inactive are the calls of the source. No cut-off for these calls is given here. Residues, ends and D or L forms follow the SMILES beside them. *: point of attachment. S(CH2)2OCO2(CPT-20-yl) = CC[C@@]1(OC(=O)OCCS*)C(=O)OCc2c1cc1n(c2=O)Cc2cc3ccccc3nc2-1

Legend:
[1] = Toxicity in nude mouse xenografted with human SK-BR-3 cells assessed as effect on globulin level at 8 micromol/kg, iv administered every 3 days for 14 days; format: organism-based; conditions: in vivo, 336 h, dose 8 µmol/kg, time 14 day
SK-BR-3 [2] = assay: Induction of apoptosis in human SK-BR-3 cells assessed as early apoptotic cells at 1 uM incubated for 24 hrs by Annexin V-FITC/PI staining based flow cytometry analysis (Rvb= 4.37%); format: functional
SK-BR-3 [3] = assay: Induction of apoptosis in human SK-BR-3 cells assessed as dead cells at 2 uM incubated for 24 hrs by Annexin V-FITC/PI staining based flow cytometry analysis (Rvb= 1.21%); format: functional
[4] = Toxicity in nude mouse xenografted with human SK-BR-3 cells assessed as cellular necrosis at 8 micromol/kg, iv administered every 3 days for 14 days by H and E staining based analysis; format: organism-based; conditions: in vivo, 336 h, dose 8 µmol/kg, time 14 day
SK-BR-3 [5] = assay: Induction of apoptosis in human SK-BR-3 cells assessed as early apoptotic cells at 2 uM incubated for 24 hrs by Annexin V-FITC/PI staining based flow cytometry analysis (Rvb= 4.37%); format: functional
[6] = Toxicity in nude mouse xenografted with human SK-BR-3 cells assessed as effect on alkaline phosphatase level at 8 micromol/kg, iv administered every 3 days for 14 days; format: organism-based; conditions: in vivo, 336 h, dose 8 µmol/kg, time 14 day
[7] = Toxicity in nude mouse xenografted with human SK-BR-3 cells assessed as inflammatory cell infiltration at 8 micromol/kg, iv administered every 3 days for 14 days by H and E staining based analysis; format: organism-based; conditions: in vivo, 336 h, dose 8 µmol/kg, time 14 day
[8] = Toxicity in nude mouse xenografted with human SK-BR-3 cells assessed as effect on albumin level at 8 micromol/kg, iv administered every 3 days for 14 days; format: organism-based; conditions: in vivo, 336 h, dose 8 µmol/kg, time 14 day
SK-BR-3 [9] = assay: Induction of apoptosis in human SK-BR-3 cells assessed as late apoptotic cells at 2 uM incubated for 24 hrs by Annexin V-FITC/PI staining based flow cytometry analysis (Rvb= 5.02%); format: functional
[10] = Metabolic stability in Sprague-Dawley rat plasma assessed as half life incubated for 120 mins by LC-MS/MS analysis; format: ADME, cell-free
[11] = Toxicity in nude mouse xenografted with human SK-BR-3 cells assessed as lung damage at 8 micromol/kg, iv administered every 3 days for 14 days by H and E staining based analysis; format: organism-based; conditions: in vivo, 336 h, dose 8 µmol/kg, time 14 day
[12] = target: T1, DNA topoisomerase 1 (Homo sapiens) (UniProt P11387); assay: Inhibition of topoisomerase 1 (unknown origin) assessed as relaxation of supercoiled plasmid pBR322 DNA at 100 uM preincubated for 20 mins followed by pBR322 DNA addition and measured after 30 mins by agarose gel electrophoresis analysis; conditions: time 50.0 min
T1 sequence (whole entry): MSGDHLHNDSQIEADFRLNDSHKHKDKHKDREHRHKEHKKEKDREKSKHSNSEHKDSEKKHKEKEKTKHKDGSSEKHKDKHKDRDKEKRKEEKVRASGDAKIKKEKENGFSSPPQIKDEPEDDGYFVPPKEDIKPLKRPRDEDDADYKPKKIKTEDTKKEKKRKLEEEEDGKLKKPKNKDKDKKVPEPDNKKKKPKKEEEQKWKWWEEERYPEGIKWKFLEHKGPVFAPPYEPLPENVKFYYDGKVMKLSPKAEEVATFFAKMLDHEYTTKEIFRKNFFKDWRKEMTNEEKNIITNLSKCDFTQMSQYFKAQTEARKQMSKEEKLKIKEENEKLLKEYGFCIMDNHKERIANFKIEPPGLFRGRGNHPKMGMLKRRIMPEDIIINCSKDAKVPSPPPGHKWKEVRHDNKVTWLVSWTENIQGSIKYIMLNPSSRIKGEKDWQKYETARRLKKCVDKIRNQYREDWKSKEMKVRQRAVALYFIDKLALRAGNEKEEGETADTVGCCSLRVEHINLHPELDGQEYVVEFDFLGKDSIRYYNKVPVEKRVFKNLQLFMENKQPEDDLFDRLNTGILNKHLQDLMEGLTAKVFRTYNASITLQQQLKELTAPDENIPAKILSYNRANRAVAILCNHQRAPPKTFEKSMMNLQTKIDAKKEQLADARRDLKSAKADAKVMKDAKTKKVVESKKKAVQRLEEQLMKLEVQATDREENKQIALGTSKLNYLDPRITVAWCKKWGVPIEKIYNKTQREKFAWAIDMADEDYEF

[13] = Toxicity in nude mouse xenografted with human SK-BR-3 cells assessed as liver damage at 8 micromol/kg, iv administered every 3 days for 14 days by H and E staining based analysis; format: organism-based; conditions: in vivo, 336 h, dose 8 µmol/kg, time 14 day
[14] = Toxicity in nude mouse xenografted with human SK-BR-3 cells assessed as heart damage at 8 micromol/kg, iv administered every 3 days for 14 days by H and E staining based analysis; format: organism-based; conditions: in vivo, 336 h, dose 8 µmol/kg, time 14 day
[15] = Drug metabolism in human SK-BR-3 cells assessed as camptothecin release at 50 uM measured after 4 hrs by LC-MS/MS analysis; format: ADME, cell-based; conditions: sk-br-3, 4 h
[16] = target: Epidermal growth factor receptor and ErbB2 (HER1 and HER2) (Homo sapiens) (UniProt P04626+P00533); assay: Inhibition of EGFR/HER2 heterodimerization in human SK-BR-3 cells at 10 uM preincubated for 4 hrs followed by EGF addition for 20 mins by immunoprecipitation analysis; format: cell-based; conditions: time 260.0 min
SK-BR-3 [17] = assay: Induction of cell cycle arrest in human SK-BR-3 cells assessed as accumulation of cells at S phase at 2 uM incubated for 24 hrs by flow cytometry analysis (reference value: 23%); format: functional
[18] = Metabolic stability in Sprague-Dawley rat plasma assessed as drug degradation incubated for 120 mins by LC-MS/MS analysis; format: ADME, cell-free; conditions: 2 h
SK-OV-3 = assay: Cytotoxicity against HER-positive human SK-OV-3 cells assessed as inhibition of cell growth incubated for 48 hrs by MTT assay; format: functional, cell-based; conditions: SK-OV-3, 48 h
[19] = […] in nude mouse xenografted with human SK-BR-3 cells assessed as effect on alanine aminotransferase level at 8 micromol/kg, iv administered every 3 days for 14 days; format: organism-based; conditions: in vivo, 336 h, dose 8 µmol/kg, time 14 day
MDA-MB-231 = assay: Cytotoxicity against HER-negative human MDA-MB-231 cells assessed as inhibition of cell growth incubated for 48 hrs by MTT assay; format: functional, cell-based; conditions: MDA-MB-231, 48 h
SK-BR-3 [20] = assay: Induction of apoptosis in human SK-BR-3 cells assessed as live cells at 2 uM incubated for 24 hrs by Annexin V-FITC/PI staining based flow cytometry analysis (Rvb= 89.4%); format: functional
SK-BR-3 [21] = assay: Induction of cell cycle arrest in human SK-BR-3 cells assessed as accumulation of cells at S phase at 1 uM incubated for 24 hrs by flow cytometry analysis (reference value: 23%); format: functional
[22] = Toxicity in nude mouse xenografted with human SK-BR-3 cells assessed as kidney damage at 8 micromol/kg, iv administered every 3 days for 14 days by H and E staining based analysis; format: organism-based; conditions: in vivo, 336 h, dose 8 µmol/kg, time 14 day
NCI-N87 = assay: Cytotoxicity against HER-positive human NCI-N87 cells assessed as inhibition of cell growth incubated for 48 hrs by MTT assay; format: functional, cell-based; conditions: NCI-N87, 48 h
[23] = target: Receptor tyrosine-protein kinase erbB-2 (Homo sapiens, UniProt P04626); assay: Binding affinity to recombinant HER2 (unknown origin) assessed as dissociation constant by SPR analysis
[24] = […] in nude mouse xenografted with human SK-BR-3 cells assessed as effect on aspartate aminotransferase level at 8 micromol/kg, iv administered every 3 days for 14 days; format: organism-based; conditions: in vivo, 336 h, dose 8 µmol/kg, time 14 day

Chain of Receptor tyrosine-protein kinase erbB-2 (P04626 whole entry): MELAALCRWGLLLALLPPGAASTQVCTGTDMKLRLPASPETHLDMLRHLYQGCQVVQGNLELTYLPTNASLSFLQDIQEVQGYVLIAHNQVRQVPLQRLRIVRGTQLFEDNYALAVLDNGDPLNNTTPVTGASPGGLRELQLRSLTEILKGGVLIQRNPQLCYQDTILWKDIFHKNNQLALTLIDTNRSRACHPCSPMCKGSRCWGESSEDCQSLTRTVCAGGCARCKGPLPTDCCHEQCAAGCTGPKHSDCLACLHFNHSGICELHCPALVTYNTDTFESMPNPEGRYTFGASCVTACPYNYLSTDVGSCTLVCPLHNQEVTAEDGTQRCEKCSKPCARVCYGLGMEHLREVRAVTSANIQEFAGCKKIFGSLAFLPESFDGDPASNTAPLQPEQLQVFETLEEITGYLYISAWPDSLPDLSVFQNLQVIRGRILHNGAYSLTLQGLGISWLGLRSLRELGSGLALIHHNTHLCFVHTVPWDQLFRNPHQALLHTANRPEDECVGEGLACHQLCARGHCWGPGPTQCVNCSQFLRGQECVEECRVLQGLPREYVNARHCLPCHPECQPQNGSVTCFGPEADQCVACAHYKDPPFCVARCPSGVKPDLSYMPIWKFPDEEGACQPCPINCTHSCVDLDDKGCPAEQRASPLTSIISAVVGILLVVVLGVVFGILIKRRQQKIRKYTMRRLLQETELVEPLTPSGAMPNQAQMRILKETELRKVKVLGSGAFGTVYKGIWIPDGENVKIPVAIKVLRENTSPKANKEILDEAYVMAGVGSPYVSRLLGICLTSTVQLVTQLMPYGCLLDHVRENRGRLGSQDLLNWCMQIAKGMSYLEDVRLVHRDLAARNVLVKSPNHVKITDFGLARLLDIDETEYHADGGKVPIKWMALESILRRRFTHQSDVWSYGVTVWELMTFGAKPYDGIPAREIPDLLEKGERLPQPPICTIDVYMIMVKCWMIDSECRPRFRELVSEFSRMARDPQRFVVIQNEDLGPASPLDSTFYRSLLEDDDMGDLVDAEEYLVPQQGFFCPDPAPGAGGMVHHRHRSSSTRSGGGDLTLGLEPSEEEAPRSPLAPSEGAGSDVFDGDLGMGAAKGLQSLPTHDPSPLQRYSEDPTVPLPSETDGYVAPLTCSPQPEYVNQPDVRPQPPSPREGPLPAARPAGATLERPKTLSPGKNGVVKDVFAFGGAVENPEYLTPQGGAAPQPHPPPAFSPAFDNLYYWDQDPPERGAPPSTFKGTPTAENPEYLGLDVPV

SMILES | Activity [1] | Activity (SK-BR-3 [2]) [%] | Activity (SK-BR-3 [3]) [%] | Activity [4] | Activity (SK-BR-3 [5]) [%] | Activity [6] | Activity [7] | Activity [8] | Activity (SK-BR-3 [9]) [%] | half-life [10] [min] | Activity [11] | inhibition [12] | Activity [13] | Activity [14] | Drug metabolism [15] | inhibition [16] | Activity (SK-BR-3 [17]) [%] | Stability [18] | IC50 (SK-OV-3) [nM] | Activity [19] | further results
CC[C@H](C)[C@H](NC(=O)[C@@H](N)CCCNC(=N)N)C(=O)N[C@@H](CCCCN)C(=O)N1CCC[C@H]1C(=O)N[C@@H](CCCNC(=N)N)C(=O)N[C@@H](CCCCN)C(=O)NCC(=O)N[C@@H](Cc1ccc(O)cc1)C(=O)N[C@H](C(=O)N[C@@H](CCCNC(=N)N)C(=O)NCC(=O)N[C@@H](CSSCCOC(=O)O[C@]1(CC)C(=O)OCc2c1cc1n(c2=O)Cc2cc3ccccc3nc2-1)C(=O)NCC(=O)N[C@@H](CSSCCOC(=O)O[C@]1(CC)C(=O)OCC2=C1C=C1c3nc4ccccc4cc3NC1C2=O)C(=O)NC(=O)C[C@H](NC(=O)CN)C(=O)N1CCC[C@H]1C(=O)N[C@@H](CC(N)=O)C(=O)N[C@@H](Cc1c[nH]c2ccccc12)C(=O)NCC(=O)N[C@@H](CCCNC(=N)N)C(=O)N[C@@H](CO)C(=O)N[C@@H](Cc1c[nH]c2ccccc12)C(=O)N[C@@H](Cc1ccc(O)cc1)C(=O)N[C@@H](CC(N)=O)C(=O)N[C@@H](CCC(N)=O)C(=O)N[C@@H](CCCNC(=N)N)C(=O)N[C@@H](Cc1ccccc1)C(=O)N[C@@H](CCCCN)C(N)=O)[C@@H](C)O (some centres undefined) | Non-Toxic | 39.8 | 0.28 | Non-Toxic | 41 | Non-Toxic | Non-Toxic | Non-Toxic | 14 | 15 | Non-Toxic | Active | Non-Toxic | Non-Toxic | Metabolite_Detected | Active | 49.2 | Unstable | 1270 | Non-Toxic | IC50 (MDA-MB-231): 7720 nM; Activity (SK-BR-3 [20]): 44.7%; Activity (SK-BR-3 [21]): 43.45%; Activity [22]: Non-Toxic; IC50 (NCI-N87): 1780 nM; Kd [23]: 437 nM; Activity [24]: Non-Toxic
CC[C@H](C)[C@H](NC(=O)[C@@H](N)CCCNC(=N)N)C(=O)N[C@@H](CCCCN)C(=O)N1CCC[C@H]1C(=O)N[C@@H](CCCNC(=N)N)C(=O)N[C@@H](CCCCN)C(=O)NCC(=O)N[C@@H](Cc1ccc(O)cc1)C(=O)N[C@H](C(=O)N[C@@H](CCCNC(=N)N)C(=O)NCC(=O)N[C@@H](CSSCCOC(=O)O[C@]1(CC)C(=O)OCc2c1cc1n(c2=O)Cc2cc3ccccc3nc2-1)C(=O)NCC(=O)N[C@@H](CC(N)=O)C(=O)N1CCC[C@H]1C(=O)N[C@@H](CC(N)=O)C(=O)N[C@@H](Cc1c[nH]c2ccccc12)C(=O)NCC(=O)N[C@@H](CCCNC(=N)N)C(=O)N[C@@H](CO)C(=O)N[C@@H](Cc1c[nH]c2ccccc12)C(=O)N[C@@H](Cc1ccc(O)cc1)C(=O)N[C@@H](CC(N)=O)C(=O)N[C@@H](CCC(N)=O)C(=O)N[C@@H](CCCNC(=N)N)C(=O)N[C@@H](Cc1ccccc1)C(=O)N[C@@H](CCCCN)C(N)=O)[C@@H](C)O (H-RIKPRKGYTRGC(S(CH2)2OCO2(CPT-20-yl))GNPNWGRSWYNQRFK-NH2) | Non-Toxic | 34.9 | 0.64 | Non-Toxic | 39.4 | Non-Toxic | Non-Toxic | Non-Toxic | 10.8 | 15 | Non-Toxic | Active | Non-Toxic | Non-Toxic | Metabolite_Detected | Active | 48.5 | Unstable | 4290 | Non-Toxic | IC50 (MDA-MB-231): 7600 nM; Activity (SK-BR-3 [20]): 49.1%; Activity (SK-BR-3 [21]): 39.2%; Activity [22]: Non-Toxic; IC50 (NCI-N87): 3290 nM; Kd [23]: 330 nM; Activity [24]: Non-Toxic
